Test results reported in patent US20110288036A1, “Methods for Treating or Preventing Vascular Graft Failure” (priority 2010, published 2011).

Legend:
[1] = test system: human saphenous vein (HSV); test: Muscle bath: sodium nitroprusside-induced relaxation of human saphenous vein; assay type: cell-based; conditions: for relaxation: 100 μM pretreatment, phenylephrine 10^-6 M, percent relaxation per method
Protocol: De-identified, discarded segments of human saphenous vein (HSV) were collected from consented patients undergoing coronary artery or peripheral vascular bypass surgeries. HSV segments were stored in a saline solution until the end of the surgical procedure, at which time they were placed in cold transplant harvest buffer (100 mM potassium lactobionate, 25 mM KH2PO4, 5 mM MgSO4, 30 mM Raffinose, 5 mM Adenosine, 3 mM Glutathione, 1 mM Allopurinol, 50 g/L Hydroxyethyl starch, pH 7.4). The vessels were used within 24 hours of harvest. Using sterile technique, HSV segments were transferred to a 60-mm Petri dish under a sterile hood. The edges (0.5 mm) of each segment were removed with a blade and excess adventitial tissue and fat removed with minimal manipulation. HSV segments were cut into consecutive rings of approximately 1.0 mm in width to be utilized for organ culture or muscle bath experiments. Two rings from each segment were immediately fixed in 10% formalin at 37° C. for 30 min to obtain pre-culture intimal thickening measurements.
In preparation for testing vein segment functional viability, HSV rings were weighed and their lengths recorded. To focus on smooth muscle responses, the endothelium was mechanically denuded by rolling the luminal surface of each ring at the tip of a fine vascular forceps before suspension in a muscle bath containing a bicarbonate buffer (120 mM NaCl, 4.7 mM KCl, 1.0 mM MgSO4, 1.0 mM NaH2PO4, 10 mM glucose, 1.5 mM CaCl2, and 25 mM […], pH 7.4) equilibrated with 95% O2 and 5% CO2 at 37° C. The rings were stretched and the length progressively adjusted until maximal tension was obtained. […] Rings were maintained at a resting tension of 1 g, which produces maximal responses to contractile agonists as previously determined, and equilibrated for 2 hours in buffer. […]
HSV rings were first contracted with 110 mM KCl (with equimolar replacement of NaCl in bicarbonate buffer) and the generated force was measured. […] Rings were relaxed with a cumulative log dose of sodium nitroprusside (SNP), a nitric oxide donor, and the force generated was recorded. […] Rings were then incubated with either buffer alone or buffer plus 100 μM of MMI-0100 ([…] (SEQ ID NO: 1)) for 2 hours, followed by treatment with the same doses of PE and SNP, and the forces generated again recorded. Measured force was normalized for ring weight and length and percent relaxation was calculated; force generated with 10^−6 M of PE was set as 0% relaxation.
The enhancing effect of MMI-0100 ([…]; SEQ ID NO: 1) on smooth muscle relaxation was examined by pre-treating harvested human saphenous vein (HSV) with MMI-0100 ([…]; SEQ ID NO: 1) before SNP treatment. […] Percentage of relaxation at 0, 0.01, 0.1, and 1.0 μM of SNP was measured. […]

[2] = test system: vein graft (inferior vena cava) intimal hyperplasia; test: Mouse vein graft model; assay type: in vivo
Protocol: 12-week-old C57BL/6 wild type mice (Harlan) were used for all experiments, as previously described (Muto, A. et al., J. Exp. Med., 2011, 208(3): 561-575, incorporated herein by reference in its entirety). […] Prior to implantation, the vein was treated ex vivo with 100 μM of MMI-0100 ([…] (SEQ ID NO: 1)) peptide solution, or control PBS solution, for 20 minutes at room temperature.
To implant the vein graft, a midline incision was made in the abdomen of a recipient mouse and the infrarenal abdominal aorta was exposed. The abdominal aorta was temporarily occluded with atraumatic micro-clamps and a segment corresponding to the length of the vein graft was excised. The vein was sutured into the arterial circulation using 10-0 nylon in continuous fashion.
Vein grafts were followed postoperatively using the Vevo770® High-Resolution Imaging System (VisualSonics, Toronto, Canada), with weekly measurements of graft wall thickness. At 28 days after surgery, mice were sacrificed to allow explantation of the vein graft. Tissue was either frozen with RNA stabilization reagent (Qiagen) or explanted for paraffin embedding after circulatory flushing with ice-cold PBS followed by 4% paraformaldehyde perfusion-fixation. Vein graft wall thickness, lumen diameter, and outer wall diameter (elastic lamina) were measured in elastin-stained sections using computer morphometry (ImageJ).
Vein graft samples were fixed as described above and harvested for histology. Specimens were embedded in paraffin and cut in cross section (5 μm). Hematoxylin & Eosin, Masson trichrome, and van Gieson elastin staining were performed for all samples. Cells were cultured on gelatin-coated cover slips and fixed with methanol.
All sections were treated for antigen retrieval using 10 mmol/L citrate buffer (pH 6.0) prior to boiling or proteinase K (20 μg/ml) treatment, at room temperature, for 10-15 minutes. Immunohistochemical detection was performed using DAB as well as NovaRED® substrate (Vector). Sections were counterstained with Mayer's Hematoxylin.
The efficacy of MMI-0100 ([…]; SEQ ID NO: 1) in treating intimal hyperplasia in vivo was examined using a mouse model of vein bypass graft. […] The IVC was soaked in a 100 μM solution of MMI-0100 ([…]; SEQ ID NO: 1) at room temperature for 20 minutes prior to implantation into a host (C57BL/6J) mouse to bypass the infrarenal aorta. Five treated and six untreated veins were transplanted for a total of 11 transplanted animals. Vein graft wall thickness was determined using a […] ultrasound imaging system at each week.
In order to further confirm the inhibitory effects of MMI-0100 ([…]; SEQ ID NO: 1) on intimal hyperplasia development in an […] model, the effect of MMI-0100 ([…]; SEQ ID NO: 1) was investigated in a follow-up study using a mouse model of vein graft adaptation. To this end, vein grafts were treated with PBS or 100 μM of MMI-0100 ([…]; SEQ ID NO: 1) for 20 minutes prior to implantation; the thickness of the vein grafts then was examined weekly with ultrasound.

YARAAARQARAKALARQLGVAA [MMI-0100] was tested, and the “increase in relaxation compared to control-pretreated HSV” value ([1]; 30 μM, 2 hrs pretreatment, norepinephrine contraction, SNP 0-1 μM) was “about 40%”, the relaxation ([1]; SNP 10^-7 M, untreated control 72.768±6.99) was 92.54±3.09 and the relaxation ([1]; SNP 10^-8 M, untreated control 10.825±5.62) was 25.622±6.38. The “reduced wall thickness compared to control grafts (histological staining)” value ([2]; follow-up study, 100 μM 20 minutes ex vivo, 4 weeks) was 72%, the “F4/80-positive cells infiltrating into vein grafts” value ([2]; follow-up study, 100 μM 20 minutes ex vivo, 4 weeks, immunohistochemistry) was “fewer F4/80-positive cells” and the “vein graft wall thickness ratio” value ([2]; follow-up study, 100 μM 20 minutes ex vivo, 4 weeks, ultrasound, control 4.7-fold) was 2.6 fold. For the same sequence, the “vein graft wall thickness, weekly ultrasound” value ([2]; follow-up study, 100 μM 20 minutes ex vivo, weeks 1-4) was “diminished wall thickness at all postoperative time points” and the “vessel wall thickness relative to originally harvested IVC” value ([2]; graft soaked 100 μM 20 minutes, 4 weeks, ultrasound, control almost five times) was “about 2.5 times”.
